Assay results published in patent publication US8916577B2, “Tricyclic derivatives, process for their preparation and their use as kinase inhibitors” (Nerviano Medical Sciences S.R.L., priority 2011, dated 2014).
Counter-ions that a name gives are not always drawn.

Target: MPS1 (Homo sapiens (Human), UniProt P33981)
Assay: Biochemical assay for inhibitors of MPS1 kinase activity (33P-ATP trans-phosphorylation, Dowex)
Conditions: 5 nM MPS1, 15 microM ATP, P38-β-tide 200 microM
Source text: Cloning, Expression and Purification of Recombinant MPS1 Full Length Protein.
MPS1 full length (corresponding to residues 2-857 of the full length sequence, see Swiss-Prot accession number P33981) was PCR amplified from the full-length human MPS1 gene present in house as clone pGEX4t_MPS1.
Baculoviruses were generated by cotransfecting Sf9 insect cells with the expression vector and the viral DNA using the BaculoGold® transfection kit (Pharmingen). Viral supernatant was recovered after 5 days and subjected to 3 rounds of amplification to increase viral titer. Recombinant protein was produced by infecting High5 insect cells. After 72 hours of infection at 21° C., cells were recovered, pelletted and freezed at −80° C. For purification of recombinant protein, pellet was thawed, resuspended in lysis buffer (PBS, NaCl 150 mM, Glycerol 10%, CHAPS 0.1%, DTT 20 mM, protease and phosphatase inhibitors) and lysed by Gaulin. Lysate was cleared by centrifugation and loaded on a GST affinity column. After extensive wash, recombinant protein was cleaved by a specific protease and eluted by incubation.
To get a fully activated enzyme, the protein was then subjected to auto-phosphorylation in presence of ATP 1 mM at 25° C. for 2 hours in kinase buffer (Hepes pH7.5 50 mM, MgCl2 2.5 mM, MnCl2 1 mM, DTT 1 mM, phosphatase inhibitors); ATP was then removed whit a desalting column.
Biochemical Assay for Inhibitors of MPS1 Kinase Activity
The inhibitory activity of putative kinase inhibitors and the potency of selected compounds were determined using a trans-phosphorylation assay.
Specific peptide or protein substrates are trans-phosphorylated by their specific ser-thr or tyr kinase in the presence of ATP traced with ^33P-γ-ATP, and in the presence of their own optimal buffer and cofactors.
At the end of the phosphorylation reaction, more than 98% unlabeled ATP and radioactive ATP is captured by an excess of the ion exchange dowex resin; the resin then settles down to the bottom of the reaction plate by gravity.
Supernatant is subsequently withdrawn and transferred into a counting plate, then evaluated by P-counting.
The buffer for MPS1 assay was composed of HEPES 50 mM, at pH 7.5, with 2.5 mM MgCl2, 1 mM MnCl2, 1 mM DTT, 3 microM Na3VO4, 2 mM P-glycerophosphate and 0.2 mg/mL BSA.
The assay was run with a final concentration MPS1 of 5 nM, in the presence of 15 microM ATP and 1.5 nM ^33P-γ-ATP; the substrate was P38-β-tide, used at 200 microM.
The test mix consisted of:
1) 3× Enzyme mix (done in Kinase Buffer 3×), 5 microL/well
2) 3× substrate and ATP mix (done in ddH2O), together with ^33P-γ-ATP, 5 microL/well
3) 3× test compounds (diluted into ddH2O—3% DMSO)—5 microL/well
a) for percent inhibition studies (HTS), individual dilution plates at 1 mM are diluted at a 3× concentration (30 microM) in ddH2O (3% DMSO=final concentration) using a Beckman NX automated pipetting platform. The same instrument is used for distributing the diluted mother plates into the test plates. b) for IC50 determination (KSS platform), 100 μl of each compound at 1 mM in 100% DMSO are transferred from the original plate into the first column of another 96 well plate (A1 to G1); well H1 is left empty for the internal standard inhibitor, usually staurosporine.
An automated station for serial dilutions (Biomek FX, Beckman) is used for producing 1:3 dilutions in 100% DMSO, from line A1 to A10, and for all the seven compounds in the column. Moreover, 4-5 copies of daughter plates are prepared by reformatting 5 microL of this first set of 100% DMSO dilution plates into 384 deep well-plates: one copy of the daughter plates with the serial dilutions of test compounds will be thaw the day of the experiments, reconstituted at a 3× concentration with water and used in the IC50 determination assays. In a standard experiment, the highest concentration (3×) of all compounds is 30 microM, while the lowest one is 1.5 nM. […]

Chain of MPS1 (P33981 2-857): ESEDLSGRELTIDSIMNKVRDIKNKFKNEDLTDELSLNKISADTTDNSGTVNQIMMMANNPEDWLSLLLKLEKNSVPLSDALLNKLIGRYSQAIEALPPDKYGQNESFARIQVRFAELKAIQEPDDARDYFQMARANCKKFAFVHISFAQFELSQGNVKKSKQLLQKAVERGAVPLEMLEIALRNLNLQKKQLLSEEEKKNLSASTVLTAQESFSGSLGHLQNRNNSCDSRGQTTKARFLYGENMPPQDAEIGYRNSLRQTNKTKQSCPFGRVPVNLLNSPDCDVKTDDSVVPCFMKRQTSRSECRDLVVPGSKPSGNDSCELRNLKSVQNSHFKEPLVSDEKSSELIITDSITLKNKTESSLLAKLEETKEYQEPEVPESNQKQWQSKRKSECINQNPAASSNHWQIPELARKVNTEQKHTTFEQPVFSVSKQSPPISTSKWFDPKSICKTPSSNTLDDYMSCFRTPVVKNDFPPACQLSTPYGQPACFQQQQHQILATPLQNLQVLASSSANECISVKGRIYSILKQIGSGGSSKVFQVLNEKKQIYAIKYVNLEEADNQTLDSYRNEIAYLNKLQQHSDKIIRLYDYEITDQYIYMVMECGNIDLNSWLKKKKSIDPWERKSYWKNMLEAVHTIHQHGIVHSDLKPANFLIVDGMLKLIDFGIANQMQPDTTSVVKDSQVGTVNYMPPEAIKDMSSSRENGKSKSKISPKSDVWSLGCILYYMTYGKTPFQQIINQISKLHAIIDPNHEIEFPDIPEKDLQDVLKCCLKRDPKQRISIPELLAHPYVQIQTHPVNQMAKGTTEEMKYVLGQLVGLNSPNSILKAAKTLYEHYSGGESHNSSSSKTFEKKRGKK

Going from `CCc1cccc(CC)c1NC(=O)c1nn(CC(F)(F)F)c2c1CCCc1cnc(Nc3ccc(N4CCN(C)CC4)cc3OC)nc1-2` [Compound 56, N-(2,6-diethylphenyl)-9-{[2-methoxy-4-(4-methylpiperazin-1-yl)phenyl]amino}-1-(2,2,2-trifluoroethyl)-1,4,5,6-tetrahydropyrazolo[4′,3′:6,7]cyclohepta[1,2-d]pyrimidine-3-carboxamide] to `CCc1cccc(CC)c1NC(=O)c1nn(C)c2c1CCCc1cnc(Nc3ccc(N4CCN(C)CC4)cc3OC)nc1-2` [Compound 4, N-(2,6-diethylphenyl)-9-{[2-methoxy-4-(4-methylpiperazin-1-yl)phenyl]amino}-1-methyl-1,4,5,6-tetrahydropyrazolo[4′,3′:6,7]cyclohepta[1,2-d]pyrimidine-3-carboxamide], the IC50 falls from 862 nM to 184 nM (4.7-fold). The second is the more potent here.

Going from `COc1cc(N2CCN(C)CC2)ccc1Nc1ncc2c(n1)-c1c(c(C(=O)Nc3ccccc3)nn1C)CCC2` [Compound 8, 9-{[2-methoxy-4-(4-methylpiperazin-1-yl)phenyl]amino}-1-methyl-N-phenyl-1,4,5,6-tetrahydropyrazolo[4′,3′:6,7]cyclohepta[1,2-d]pyrimidine-3-carboxamide] to `CCc1cccc(C)c1NC(=O)c1nn(C)c2c1CCCc1cnc(Nc3ccc(N4CCN(C)CC4)cc3OC)nc1-2` [Compound 27, N-(2-ethyl-6-methylphenyl)-9-{[2-methoxy-4-(4-methylpiperazin-1-yl)phenyl]amino}-1-methyl-1,4,5,6-tetrahydropyrazolo[4′,3′:6,7]cyclohepta[1,2-d]pyrimidine-3-carboxamide], the IC50 falls from 353 nM to 189 nM (1.9-fold).

Going from `CCc1cccc(CC)c1NC(=O)c1onc2c1CCCc1cnc(Nc3ccc(N4CCN(C)CC4)cc3OC)nc1-2` [Compound 101, N-(2,6-diethylphenyl)-9-{[2-methoxy-4-(4-methylpiperazin-1-yl)phenyl]amino}-5,6-dihydro-4H-isoxazolo[4′,3′:6,7]cyclohepta[1,2-d]pyrimidine-3-carboxamide] to `CCc1cccc(CC)c1NC(=O)c1noc2c1CCCc1cnc(Nc3ccc(N4CCN(C)CC4)cc3OC)nc1-2` [Compound 99, N-(2,6-diethylphenyl)-9-{[2-methoxy-4-(4-methylpiperazin-1-yl)phenyl]amino}-5,6-dihydro-4H-isoxazolo[4′,5′:6,7]cyclohepta[1,2-d]pyrimidine-3-carboxamide], the IC50 falls from 308 nM to 134 nM (2.3-fold).

`COc1cc(N2CCN(C)CC2)ccc1Nc1ncc2c(n1)-c1c(c(C(=O)NC3CCCCC3)nn1C)CCC2` [Compound 28, N-cyclohexyl-9-{[2-methoxy-4-(4-methylpiperazin-1-yl)phenyl]amino}-1-methyl-1,4,5,6-tetrahydropyrazolo[4′,3′:6,7]cyclohepta[1,2-d]pyrimidine-3-carboxamide] and `CNC(=O)c1nn(C)c2c1CCCc1cnc(Nc3ccc(Br)cc3OC)nc1-2` [Compound 32, 9-[(4-bromo-2-methoxyphenyl)amino]-N,1-dimethyl-1,4,5,6-tetrahydropyrazolo[4′,3′:6,7]cyclohepta[1,2-d]pyrimidine-3-carboxamide] are within 1.5-fold of each other in IC50: 249 nM for the first, 277 nM for the second.

First: CCc1cccc(CC)c1NC(=O)c1nn(C)c2c1CCCc1cnc(Nc3ccc(C(=O)NC4CCN(C)CC4)cc3OC)nc1-2 [Compound 35, N-(2,6-diethylphenyl)-9-({2-methoxy-4-[(1-methylpiperidin-4-yl)carbamoyl]phenyl}amino)-1-methyl-1,4,5,6-tetrahydropyrazolo[4′,3′:6,7]cyclohepta[1,2-d]pyrimidine-3-carboxamide]
Second: CCc1cccc(CC)c1NC(=O)c1nn(C)c2c1CCCc1cnc(Nc3ccc(C(=O)N4CCCN(C)CC4)cc3OC(F)(F)F)nc1-2 [Compound 43, N-(2,6-diethylphenyl)-1-methyl-9-({4-[(4-methyl-1,4-diazepan-1-yl)carbonyl]-2-(trifluoromethoxy)phenyl}amino)-1,4,5,6-tetrahydropyrazolo[4′,3′:6,7]cyclohepta[1,2-d]pyrimidine-3-carboxamide]
The IC50 of the first is 3-fold lower: 66 nM for the first, 199 nM for the second.

Compared with `CCc1cccc(CC)c1NC(=O)c1nn(CCO)c2c1CCCc1cnc(Nc3ccc(N4CCC(N(C)C)CC4)cc3OC)nc1-2` [Compound 71, N-(2,6-diethylphenyl)-9-({4-[4-(dimethylamino)piperidin-1-yl]-2-methoxyphenyl}amino)-1-(2-hydroxyethyl)-1,4,5,6-tetrahydropyrazolo[4′,3′:6,7]cyclohepta[1,2-d]pyrimidine-3-carboxamide trifluoroacetate], `CCc1cccc(CC)c1NC(=O)c1c2c(nn1C)-c1nc(Nc3ccc(N4CCN(C)CC4)cc3OC)ncc1CCC2` [Compound 97, N-(2,6-diethylphenyl)-9-{[2-methoxy-4-(4-methylpiperazin-1-yl)phenyl]amino}-2-methyl-2,4,5,6-tetrahydropyrazolo[4′,3′:6,7]cyclohepta[1,2-d]pyrimidine-3-carboxamide] is 4.9-fold higher in IC50: 174 nM for the first, 853 nM for the second.

Molecule `COc1cc(Br)ccc1Nc1ncc2c(n1)-c1c(c(C(N)=O)nn1C)CCC2` [Compound 1, 9-[(4-bromo-2-methoxyphenyl)amino]-1-methyl-1,4,5,6-tetrahydropyrazolo[4′,3′:6,7]cyclohepta[1,2-d]pyrimidine-3-carboxamide] has an IC50 of 421 nM.
